Experimental data as given in PubChem BioAssay AID1963869 (Molecular Pharmacology Branch, DTP, NCI, 2024).

System: KRAS patient-derived spheroids with HUVEC/MSC, viability
Assay: Anticancer human tumor 323965-272-R-J2-PDC patient-derived pancreatic carcinoma cell line growth inhibition [KRAS2]
Details: for viability, T/C: stronger effect = lower value
In short: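 Combination screen of spheroid viability in tumor-cell co-cultures with endothelial (HUVEC) and mesenchymal stem cell stroma. Each agent was tested in half-log dilutions, topping at clinical Cmax or at 10 microM without a known Cmax.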

[1] = curve of first compound, second compound 0.1 µM
[2] = curve of first compound, second compound 0.316 µM
[3] = curve of first compound, second compound 1 µM
[4] = curve of first compound, second compound 3.16 µM
[5] = curve of first compound, second compound 10 µM
[6] = second compound 0.1 µM, first compound 0.0316 µM
[7] = second compound 0.1 µM, first compound 0.1 µM
[8] = second compound 0.1 µM, first compound 0.316 µM
[9] = second compound 0.1 µM, first compound 1 µM
[10] = second compound 0.1 µM, first compound 3.16 µM
[11] = second compound 0.1 µM, first compound 10 µM
[12] = second compound 0.316 µM, first compound 0.0316 µM
[13] = second compound 0.316 µM, first compound 0.1 µM
[14] = second compound 0.316 µM, first compound 0.316 µM
[15] = second compound 0.316 µM, first compound 1 µM
[16] = second compound 0.316 µM, first compound 3.16 µM
[17] = second compound 0.316 µM, first compound 10 µM
[18] = second compound 1 µM, first compound 0.0316 µM
[19] = second compound 1 µM, first compound 0.1 µM
[20] = second compound 1 µM, first compound 0.316 µM
[21] = second compound 1 µM, first compound 1 µM
[22] = second compound 1 µM, first compound 3.16 µM
[23] = second compound 1 µM, first compound 10 µM
[24] = second compound 3.16 µM, first compound 0.0316 µM
[25] = second compound 3.16 µM, first compound 0.1 µM
[26] = second compound 3.16 µM, first compound 0.316 µM
[27] = second compound 3.16 µM, first compound 1 µM
[28] = second compound 3.16 µM, first compound 3.16 µM
[29] = second compound 3.16 µM, first compound 10 µM
[30] = second compound 10 µM, first compound 0.0316 µM
[31] = second compound 10 µM, first compound 0.1 µM
[32] = second compound 10 µM, first compound 0.316 µM
[33] = second compound 10 µM, first compound 1 µM
[34] = second compound 10 µM, first compound 3.16 µM
[35] = second compound 10 µM, first compound 10 µM
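Also: spheroids exposed to agents for 7 days.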
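For viability, T/C in this document: 100% = DMSO vehicle control viability.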

SMILES | IC50 [1] [µM] | IC50 [2] [µM] | IC50 [3] [µM] | IC50 [4] [µM] | IC50 [5] [µM] | viability, T/C [6] [%] | viability, T/C [7] [%] | viability, T/C [8] [%] | viability, T/C [9] [%] | viability, T/C [10] [%] | viability, T/C [11] [%] | viability, T/C [12] [%] | viability, T/C [13] [%] | viability, T/C [14] [%] | viability, T/C [15] [%] | viability, T/C [16] [%] | viability, T/C [17] [%] | viability, T/C [18] [%] | viability, T/C [19] [%] | viability, T/C [20] [%] | further results
CCN1CCN(Cc2ccc(Nc3ncc(F)c(-c4cc(F)c5nc(C)n(C(C)C)c5c4)n3)nc2)CC1 | – | – | – | – | – | – | – | – | – | – | – | – | – | – | – | – | – | – | – | – | viability, T/C (compound 0.00316 µM): 93.4% [middle of 5 runs]; viability, T/C (compound 0.0316 µM): 76.6% [middle of 5 runs]; viability, T/C (compound 0.1 µM): 61% [middle of 5 runs]; viability, T/C (compound 0.316 µM): 62.1% [middle of 5 runs]; viability, T/C (compound 1 µM): 62.6% [middle of 5 runs]; IC50 (curve of compound): > 1 µM
COC(=O)c1ccc2c(C(=Nc3ccc(N(C)C(=O)CN4CCN(C)CC4)cc3)c3ccccc3)c(O)[nH]c2c1 + COc1cc2nc(C)nc(NC(C)c3cc(N)cc(C(F)(F)F)c3)c2cc1OC1CCOC1 | > 10 | > 10 | > 10 | > 10 | > 10 | 92.9 | 102 | 102 | 106 | 92.6 | 86 | 89.3 | 81 | 84.1 | 78.8 | 78.1 | 74.6 | 82.6 | 73.2 | 76.8 | viability, T/C [21]: 74.6%; viability, T/C [22]: 70.8%; viability, T/C [23]: 68.9%; viability, T/C [24]: 77.3%; viability, T/C [25]: 77.6%; viability, T/C [26]: 75.6%; viability, T/C [27]: 81.5%; viability, T/C [28]: 79.3%; viability, T/C [29]: 75.7%; viability, T/C [30]: 90.8%; viability, T/C [31]: 86%; viability, T/C [32]: 77.4%; viability, T/C [33]: 72.8%; viability, T/C [34]: 77.8%; viability, T/C [35]: 69.7%
COc1cc2nccc(Oc3ccc(NC(=O)C4(C(=O)Nc5ccc(F)cc5)CC4)cc3)c2cc1OC + C=CC(=O)N1CCN(c2nc(=O)n(-c3c(C)ccnc3C(C)C)c3nc(-c4c(O)cccc4F)c(F)cc23)C(C)C1 | > 10 | > 10 | > 10 | > 10 | 1.19 | 54.7 | 56 | 58.8 | 62.6 | 64.2 | 57.8 | 52.8 | 55.1 | 58.1 | 61.8 | 62.5 | 59.8 | 54.5 | 52.3 | 59.9 | viability, T/C [21]: 61.7%; viability, T/C [22]: 63.8%; viability, T/C [23]: 61.5%; viability, T/C [24]: 57.1%; viability, T/C [25]: 56.9%; viability, T/C [26]: 56.2%; viability, T/C [27]: 61.2%; viability, T/C [28]: 58.6%; viability, T/C [29]: 55.6%; viability, T/C [30]: 47.6%; viability, T/C [31]: 54.2%; viability, T/C [32]: 45.5%; viability, T/C [33]: 61.9%; viability, T/C [34]: 29.4%; viability, T/C [35]: 44.2%
O=C(c1cc(Cc2n[nH]c(=O)c3ccccc23)ccc1F)N1CCN(C(=O)C2CC2)CC1 + C=CC(=O)N1CCN(c2nc(=O)n(-c3c(C)ccnc3C(C)C)c3nc(-c4c(O)cccc4F)c(F)cc23)C(C)C1 | > 10 | 7.45 | 7.83 | > 10 | 1.73 | 64.6 | 61.7 | 62.9 | 64.5 | 64.7 | 50.3 | 67.1 | 59.7 | 61.3 | 55.9 | 55.3 | 46.7 | 60.8 | 59.9 | 59.2 | viability, T/C [21]: 61.7%; viability, T/C [22]: 60.3%; viability, T/C [23]: 39.2%; viability, T/C [24]: 64.2%; viability, T/C [25]: 66.2%; viability, T/C [26]: 61.1%; viability, T/C [27]: 61%; viability, T/C [28]: 58.7%; viability, T/C [29]: 46.2%; viability, T/C [30]: 48.3%; viability, T/C [31]: 50.1%; viability, T/C [32]: 60.3%; viability, T/C [33]: 55.6%; viability, T/C [34]: 45%; viability, T/C [35]: 32%
